Measurements reported in patent publication US11116804B2, “Modulation of the gut microbiome to treat mental disorders or diseases of the central nervous system” (Holobiome, Inc., priority 2016, dated 2021).
Entries after “also recorded” stand apart in the source; their conditions may differ.

Experiments:
[1] = in rodents; cited from earlier work
E. gabavorous KLE1738 = experiment: Growth induction of E. gabavorous by compounds spotted on FAAy plates; assay type: cell-based, Evtepia gabavorous; settings: 5 μL of stock spotted on FAAy plates spread with E. gabavorous, anaerobic, one week
Protocol: Stocks of each compound (purchased from Sigma, excluding the ATCC Mineral and Vitamin mixes) were prepared dependent on solubility in water at the concentrations shown in FIG. 2G. Five μL of the stocks were then spotted on FAAy plates spread with E. gabavorous, and incubated anaerobically for one week, and any growth was observed.

[2] = in mice; cited from earlier work

| Compound | brain efflux rate relative to influx rate [1] [times] | growth induction of E. gabavorous by spotted compound (E. gabavorous KLE1738) | half-life [2] [min] |
| --- | --- | --- | --- |
| NCCCC(=O)O [GABA, gamma-aminobutyric acid] | 17 | capable of inducing growth of E. gabavorous KLE1738; also recorded: caused growth induction; also recorded: induced growth | 17 |
| C[C@H](N)C(=O)O [alanine] | – | only GABA caused growth induction | – |
| NC(=O)CC[C@H](N)C(=O)O [glutamine] | – | only GABA caused growth induction | – |
| CC(O)C(=O)O (stereo not shown) [lactic acid] | – | only GABA caused growth induction | – |
| O=C(O)CC(=O)O [malonic acid] | – | only GABA caused growth induction | – |
| O=C(O)CCC(=O)O [succinic acid] | – | only GABA caused growth induction | – |
| C[C@@H](O)[C@H](N)C(=O)O [threonine] | – | only GABA caused growth induction | – |
| CC(C)[C@H](N)C(=O)O [valine] | – | only GABA caused growth induction | – |
